Target: HK853 (Thermotoga maritima, UniProt Q9WZV7)
Experiment: STD-NMR
Assay type: binding

Compound: Nc1ncnc2c1ncn2[C@@H]1O[C@H](COP(=O)(O)OP(=O)(O)O)[C@@H](O)[C@H]1O [ADP]
- f STD ^a: 73.3

Reference: paper PMC3546527 (MedChemComm, 2012)
